# Earlier results as cited in patent US12029798B2, “Pre-targeting strategies for molecular imaging and/or radioimmunotherapy” (UNIVERSITY OF PITTSBURGH—OF THE COMMONWEALTH SYSTEM OF …, priority 2016, dated 2024).
# Conditions: reaction with azides
substance,measurement,value
oxa-dibenzocyclooctynes [ODIBO],cycloaddition rate,43 M^−1S^−1
